# Reference: ChEMBL document CHEMBL1201862, “PubChem BioAssay data set” (2004)
# Calls of active or inactive are those of the source.
# How the values were obtained:
# [1] = THP-1 cell cytotoxicity, dose response, cytotoxicity control for Vif-APOBEC3G degradation inhibitor project, THP-1 cells (AID 1117359); format: functional; settings: Human immunodeficiency virus 1, THP-1
# Estrogen receptor = target: T1, Estrogen receptor (Homo sapiens, UniProt P03372);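 further: potency for inhibiting coactivator peptide recruitment to the receptor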
# T1 sequence (P03372 whole entry): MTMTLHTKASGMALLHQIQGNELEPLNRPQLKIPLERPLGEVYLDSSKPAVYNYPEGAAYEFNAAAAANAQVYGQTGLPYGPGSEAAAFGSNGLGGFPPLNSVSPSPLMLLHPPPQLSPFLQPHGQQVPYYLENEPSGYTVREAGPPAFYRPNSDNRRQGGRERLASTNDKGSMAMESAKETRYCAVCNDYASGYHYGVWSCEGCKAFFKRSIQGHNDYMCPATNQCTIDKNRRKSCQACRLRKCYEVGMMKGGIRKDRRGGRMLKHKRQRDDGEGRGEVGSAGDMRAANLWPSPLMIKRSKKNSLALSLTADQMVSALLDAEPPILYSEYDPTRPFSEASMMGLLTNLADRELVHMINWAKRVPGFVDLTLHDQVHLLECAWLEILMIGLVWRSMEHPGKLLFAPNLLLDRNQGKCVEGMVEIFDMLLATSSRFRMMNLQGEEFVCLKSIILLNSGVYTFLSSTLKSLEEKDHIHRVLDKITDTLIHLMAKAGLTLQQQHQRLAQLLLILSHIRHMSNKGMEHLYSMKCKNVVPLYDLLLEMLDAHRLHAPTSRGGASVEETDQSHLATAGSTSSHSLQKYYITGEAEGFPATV
# [2] = target: T2, Carboxy-terminal domain RNA polymerase II polypeptide A small phosphatase 1 (Homo sapiens, UniProt Q9GZU7); assay: inhibitors of CTDSP1, concentration-response testing, biochemical assay, absorbance-based, actives from ultra-high-throughput screening (AID 540297); format: functional
# T2 sequence (Q9GZU7 whole entry): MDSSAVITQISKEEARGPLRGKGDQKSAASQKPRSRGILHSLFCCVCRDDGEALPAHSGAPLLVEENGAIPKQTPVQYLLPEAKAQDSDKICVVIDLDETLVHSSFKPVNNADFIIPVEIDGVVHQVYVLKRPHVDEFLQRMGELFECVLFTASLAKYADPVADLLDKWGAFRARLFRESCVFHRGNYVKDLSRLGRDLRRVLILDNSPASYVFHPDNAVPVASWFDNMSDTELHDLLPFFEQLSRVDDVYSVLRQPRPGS
# [3] = target: Induced myeloid leukemia cell differentiation protein Mcl-1 (Homo sapiens, UniProt Q07820); format: functional
# Sequence of Induced myeloid leukemia cell differentiation protein Mcl-1 (Q07820 whole entry): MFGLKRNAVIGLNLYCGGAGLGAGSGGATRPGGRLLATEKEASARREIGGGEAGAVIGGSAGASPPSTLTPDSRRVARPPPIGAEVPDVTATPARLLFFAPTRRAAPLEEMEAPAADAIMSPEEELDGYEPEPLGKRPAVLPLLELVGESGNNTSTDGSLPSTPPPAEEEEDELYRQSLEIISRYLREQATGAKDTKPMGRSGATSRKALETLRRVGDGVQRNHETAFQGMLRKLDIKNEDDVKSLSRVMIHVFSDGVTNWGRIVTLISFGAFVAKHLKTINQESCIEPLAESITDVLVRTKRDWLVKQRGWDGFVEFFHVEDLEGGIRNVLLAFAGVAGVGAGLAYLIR
# Leucine aminopeptidase = target: T3, Leucine aminopeptidase (Plasmodium falciparum 3D7, UniProt Q8IL11); assay: P. falciparum M17LAP inhibitors, primary screen, biochemical, fluorogenic H-Leu-NHMec substrate, 1536-well (AID 1619); format: functional
# T3 sequence (Q8IL11 whole entry): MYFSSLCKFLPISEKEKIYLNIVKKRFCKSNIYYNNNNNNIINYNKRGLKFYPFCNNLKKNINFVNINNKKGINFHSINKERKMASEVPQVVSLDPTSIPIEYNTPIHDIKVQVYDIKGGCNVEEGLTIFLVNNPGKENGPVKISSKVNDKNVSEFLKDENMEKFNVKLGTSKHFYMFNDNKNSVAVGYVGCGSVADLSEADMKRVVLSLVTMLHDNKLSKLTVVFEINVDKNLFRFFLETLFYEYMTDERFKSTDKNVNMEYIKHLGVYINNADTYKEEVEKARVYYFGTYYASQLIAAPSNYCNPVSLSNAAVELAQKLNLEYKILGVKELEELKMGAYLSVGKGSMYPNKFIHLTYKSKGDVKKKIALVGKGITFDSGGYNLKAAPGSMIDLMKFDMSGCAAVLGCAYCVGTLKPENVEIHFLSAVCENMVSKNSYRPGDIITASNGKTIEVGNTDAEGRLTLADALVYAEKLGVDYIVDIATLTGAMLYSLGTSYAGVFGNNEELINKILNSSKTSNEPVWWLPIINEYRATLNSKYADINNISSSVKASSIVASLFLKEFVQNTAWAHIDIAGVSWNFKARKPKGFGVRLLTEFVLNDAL
# [4] = cytotoxicity in HEK-293T cells, dose response, cytotoxicity control for BCR NF-kB inhibitor project, luminescence, B-cell screen hits (AID 489021); format: functional, cell-based;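 further: HEK-293T cells carrying an NF-kB luciferase reporter; cells exposed to compound for about 14 hours before viability readout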
# [5] = microbe, parasite or virus in culture; format: functional; settings: Mycobacterium tuberculosis
# [6] = Luminescence Cell-Based Dose Confirmation HTS to Identify Inhibitors of Platelet Dense Granule Release. [Related pubchem assays: 1663 (Primary HTS), 1678 (Summary of Project)]; format: functional
# [7] = target: Luciferin 4-monooxygenase (Photinus pyralis, UniProt P08659); assay: firefly luciferase enzyme inhibitors, dose response, biochemical, luminescence (AID 1891)
# Sequence of Luciferin 4-monooxygenase (P08659 whole entry): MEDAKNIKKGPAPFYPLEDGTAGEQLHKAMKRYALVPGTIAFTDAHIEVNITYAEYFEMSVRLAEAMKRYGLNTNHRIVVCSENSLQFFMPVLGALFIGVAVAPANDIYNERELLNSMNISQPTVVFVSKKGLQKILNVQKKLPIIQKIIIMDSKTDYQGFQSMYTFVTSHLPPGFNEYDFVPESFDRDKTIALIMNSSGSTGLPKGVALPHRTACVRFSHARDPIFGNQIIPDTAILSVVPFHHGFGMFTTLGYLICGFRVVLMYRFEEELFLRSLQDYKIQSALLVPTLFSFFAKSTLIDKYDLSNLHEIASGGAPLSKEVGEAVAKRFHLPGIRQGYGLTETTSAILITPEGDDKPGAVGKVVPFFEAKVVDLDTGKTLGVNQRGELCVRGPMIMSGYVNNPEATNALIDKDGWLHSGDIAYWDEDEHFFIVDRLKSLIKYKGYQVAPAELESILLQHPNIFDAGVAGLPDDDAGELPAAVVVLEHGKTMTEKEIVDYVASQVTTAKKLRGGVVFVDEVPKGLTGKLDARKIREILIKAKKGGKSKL
# Cytochrome P450 1A2 = target: T4, Cytochrome P450 1A2 (Homo sapiens, UniProt P05177);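 further: PubChem cytochrome P450 panel assay, CYP1A2 panel member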
# T4 sequence (P05177 whole entry): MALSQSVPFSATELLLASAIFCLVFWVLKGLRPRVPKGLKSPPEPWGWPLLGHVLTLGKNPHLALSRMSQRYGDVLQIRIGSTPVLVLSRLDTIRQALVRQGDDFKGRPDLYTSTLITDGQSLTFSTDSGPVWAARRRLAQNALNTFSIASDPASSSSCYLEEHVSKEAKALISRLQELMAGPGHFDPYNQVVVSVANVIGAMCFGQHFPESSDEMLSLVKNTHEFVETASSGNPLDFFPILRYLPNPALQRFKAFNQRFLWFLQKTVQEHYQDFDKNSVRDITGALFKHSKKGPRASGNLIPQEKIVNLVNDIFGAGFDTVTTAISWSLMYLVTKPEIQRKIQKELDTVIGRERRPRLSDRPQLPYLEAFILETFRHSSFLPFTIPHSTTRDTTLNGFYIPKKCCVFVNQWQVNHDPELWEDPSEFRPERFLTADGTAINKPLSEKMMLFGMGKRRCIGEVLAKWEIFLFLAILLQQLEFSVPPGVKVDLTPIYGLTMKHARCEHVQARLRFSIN
# Cytochrome P450 2C9 = Cytochrome P450 2C9 (Homo sapiens, UniProt P11712)
# Sequence of Cytochrome P450 2C9 (P11712 whole entry, the tested form may be a part): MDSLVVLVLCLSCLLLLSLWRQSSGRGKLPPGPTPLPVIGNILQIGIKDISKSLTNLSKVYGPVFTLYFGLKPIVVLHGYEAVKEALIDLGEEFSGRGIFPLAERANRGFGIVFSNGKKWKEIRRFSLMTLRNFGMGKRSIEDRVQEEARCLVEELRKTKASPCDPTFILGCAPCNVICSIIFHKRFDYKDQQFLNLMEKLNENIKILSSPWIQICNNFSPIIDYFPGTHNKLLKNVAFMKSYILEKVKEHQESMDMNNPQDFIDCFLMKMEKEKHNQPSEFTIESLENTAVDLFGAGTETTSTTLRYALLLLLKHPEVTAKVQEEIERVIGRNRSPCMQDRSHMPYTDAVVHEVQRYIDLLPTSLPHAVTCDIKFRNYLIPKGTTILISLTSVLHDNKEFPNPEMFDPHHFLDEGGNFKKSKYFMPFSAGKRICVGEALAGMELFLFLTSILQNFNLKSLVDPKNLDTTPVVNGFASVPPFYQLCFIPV
# [8] = inhibitors of HIV Env-driven cell fusion, dose response, cherry-pick (AID 652057); format: functional, cell-based
# [9] = inhibitors of clade B AD8 Env fusion, dose response, cell-based, cherry-pick (AID 652062); format: functional;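 further: luciferase signal from cell-cell fusion driven by HIV-1 clade B AD8 Env; potency is for inhibitors of fusion seen as a drop in luminescence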
# [10] = ZM109 Env clade C HIV-1 fusion inhibitors, dose response, HeLa effector, CEM target cells, luciferase, cherry-pick (AID 652058); format: functional, cell-based
# [11] = off-target signal loss in HeLa-CEM21 co-culture – HeLa F-luc CTL cells, cherry-picked, counter-screen for HIV-1 Env fusion inhibitor project, dose response (AID 652040); format: functional, cell-based;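 further: potency for signal decrease marking cytotoxic or nonspecific inhibition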
# [12] = P. falciparum Dd2 growth inhibitors, dose response, SYBR Green, cherry-picked samples (AID 1159567); format: functional, cell-based
# cells = format: functional
# Cytochrome P450 3A4 = Cytochrome P450 3A4 (Homo sapiens, UniProt P08684);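 further: CYP3A4 tested as one member of a cytochrome P450 panel screen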
# Sequence of Cytochrome P450 3A4 (P08684 whole entry): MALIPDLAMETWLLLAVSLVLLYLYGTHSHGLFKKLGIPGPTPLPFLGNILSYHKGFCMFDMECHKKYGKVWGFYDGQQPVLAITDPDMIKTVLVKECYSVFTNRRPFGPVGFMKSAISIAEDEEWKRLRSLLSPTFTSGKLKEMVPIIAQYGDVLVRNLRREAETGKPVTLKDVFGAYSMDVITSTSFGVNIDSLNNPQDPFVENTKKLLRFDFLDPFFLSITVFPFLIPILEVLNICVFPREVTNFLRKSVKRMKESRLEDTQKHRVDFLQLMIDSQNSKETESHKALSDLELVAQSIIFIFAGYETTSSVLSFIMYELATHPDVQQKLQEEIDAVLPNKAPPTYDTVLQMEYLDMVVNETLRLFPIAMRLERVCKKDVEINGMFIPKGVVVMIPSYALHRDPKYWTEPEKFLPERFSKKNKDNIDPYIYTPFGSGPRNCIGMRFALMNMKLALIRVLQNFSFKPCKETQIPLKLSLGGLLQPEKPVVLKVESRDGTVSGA
# Cytochrome P450 2D6 = Cytochrome P450 2D6 (Homo sapiens, UniProt P10635);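 further: CYP2D6 member of a cytochrome P450 panel assay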
# Sequence of Cytochrome P450 2D6 (P10635 whole entry): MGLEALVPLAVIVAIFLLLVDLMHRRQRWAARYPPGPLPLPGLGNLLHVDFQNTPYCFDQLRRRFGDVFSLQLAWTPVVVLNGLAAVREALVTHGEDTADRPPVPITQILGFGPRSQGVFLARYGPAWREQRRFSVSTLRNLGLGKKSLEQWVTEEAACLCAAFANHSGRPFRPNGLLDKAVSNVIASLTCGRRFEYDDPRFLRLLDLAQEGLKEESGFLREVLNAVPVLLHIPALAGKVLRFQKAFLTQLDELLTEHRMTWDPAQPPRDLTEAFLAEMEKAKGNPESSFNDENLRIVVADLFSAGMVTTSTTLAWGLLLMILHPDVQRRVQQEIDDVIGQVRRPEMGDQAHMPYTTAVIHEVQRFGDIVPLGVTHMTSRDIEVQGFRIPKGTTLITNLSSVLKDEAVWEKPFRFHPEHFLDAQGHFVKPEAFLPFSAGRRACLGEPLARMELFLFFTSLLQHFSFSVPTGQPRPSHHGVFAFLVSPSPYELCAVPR
compound,measurement,setting,value
Oc1nnc(Cc2ncc(C(F)(F)F)cc2Cl)c2ccccc12,CC50,[1],> 40 µM (active)
Cc1nnc(SCC(=O)NC(=O)NCc2ccco2)n1Cc1ccccc1,IC50,Estrogen receptor,< 1.56 µM (active)
same,IC50,[2],5.15 µM (active)
Cc1ccc(-n2nc(C)cc2NC(=O)COc2cc(C)cc3oc(=O)c4c(c23)CCC4)cc1,IC50,[3],< 0.4 µM (not active)
Oc1ccc(C2c3sc(O)nc3SC3C4CCC(C4)C23)cc1 (stereo not drawn),IC50,Estrogen receptor,> 50 µM (not active)
CC1(C)Cc2c(sc3c4nnnn4c4nnnn4c23)CO1,IC50,Estrogen receptor,4.11 µM (active)
O=C1NC(=O)N(Cc2ccccc2)C(=O)/C1=C\c1ccco1,IC50,Leucine aminopeptidase,62.3 µM (active)
COc1ccc(-c2ccc(C)cc2)cc1[C@H]1[C@H]2C=CC[C@@H](C)[C@@H]2C(=O)N1Cc1ccccc1,IC50,[4],> 80 µM (inactive)
O=C(NCCc1ccc(Cl)cc1)c1ccc(C[S+]([O-])Cc2ccc(Cl)cc2)o1 (stereo not drawn),CC50,[5],> 40 µM (active)
Cc1ccc(-c2c(C#N)c(N)n(-c3ccccc3)c(=O)c2C#N)cc1,EC50,[6],3.25 µM (active)
same,EC50,[7],> 112 µM (not active)
same,AC50,Cytochrome P450 1A2,11.2 µM (inconclusive)
same,AC50,Cytochrome P450 2C9,7.94 µM (inconclusive)
CC(=O)C1=C(C)N(Cc2ccc(Cl)cc2)C(=S)NC1c1cccc(Br)c1 (stereo not drawn),AC50,[8],5.96 µM (active)
same,AC50,[9],22.6 µM (active)
same,AC50,[10],4.16 µM (active)
same,AC50,[11],15.9 µM (active)
COc1ccc(C#Cc2ccc3c(c2)[C@H]2[C@H](CCN2C(=O)C2CCC2)[C@H](CO)N3)cc1,AC50,[12],3.3 µM (active)
CCC(=O)N1CCC2(CC1)CN(Cc1cccc(Cl)c1)[C@H](CO)c1c2c2ccc(OC)cc2n1C,AC50,[12],4.8 µM (active)
COc1cccc(NC(=O)N2CC(=O)N3[C@H](CO)[C@@H](c4ccc(C#CCC5CCCC5)cc4)[C@H]3C2)c1,AC50,[12],8.6 µM (active)
FC(F)(F)c1cccc(CN2[C@@H]3CNC[C@H]2[C@@H]3c2ccc(-c3cccnc3)cc2)c1,AC50,[12],4.42 µM (active)
NC(=S)n1[nH]c(-c2ccc([N+](=O)[O-])cc2)c(/N=N/c2ccc(O)cc2)c1=O,IC50,cells,49.6 µM (active)
same,IC50,Estrogen receptor,11 µM (active)
same,IC50,[3],3.47 µM (active)
N[C@@H](Cc1cc(I)c(Oc2ccc(O)c(I)c2)c(I)c1)C(=O)O [LIOTHYRONINE SODIUM],IC50,[3],14.7 µM (active)
NCCc1c[nH]c2ccccc12 [TRYPTAMINE],AC50,Cytochrome P450 3A4,inconclusive
same,CC50,[1],> 40 µM (active)
same,AC50,Cytochrome P450 2D6,31.6 µM (inconclusive)
